Literature values, collected in paper PMC9374181 (Toxicology and applied pharmacology, 2022).
Like-named read-outs stand apart in the source and are kept apart here.

How the values were obtained:
[1] = rat models, IM
[2] = general statement on approved oximes

C[n+]1ccccc1/C=N/O [Oxime 2-PAM, pralidoxime]
plasma T1/2 [2]: less than 90 min
published half-life (published value, no reference given): less than 2 hours
Cmax ([1]; 40 mg/kg, ref Green et al., 1986): 14.5 µg/mL

O/N=C/c1cc[n+](COC[n+]2ccc(/C=N/O)cc2)cc1 [obidoxime]
plasma T1/2 [2]: less than 90 min
plasma T1/2 (ref Alioth-Streichenberg et al., 1991): 35 min
Cmax ([1]; 50 mg/kg, no reference given): 26 µg/mL

NC(=O)c1cc[n+](COC[n+]2ccccc2/C=N/O)cc1 [asoxime]
plasma T1/2 [2]: less than 90 min
plasma T1/2 (ref Cassel and Fosbraey, 1996): 48 min
Cmax ([1]; 50 mg/kg, ref Cassel and Fosbraey, 1996): 0.9 µg/mL
